{
  "source": "patent US5516803A",
  "about": "“Composition comprising a tramadol material and a non-steroidal anti-inflammatory drug” (priority 1995, dated 1996)",
  "key": {"[1]": {"test_system": "acetylcholine-induced abdominal constriction", "assay": "prevention of acetylcholine-induced abdominal constriction in mice (analgesic activity, oral)", "assay_type": "in vivo, male CD1 mice", "experimental": "[…]. The mice were all dosed orally with tramadol hydrochloride (calculated as the base), which was completely dissolved in distilled water, and ibuprofen (calculated as the base), which was completely dissolved in distilled water or in distilled water containing 2% by volume of Tween 80 containing 100% polysorbate 80. The dosing volume was 10 mL/kg.\nThe procedure used in detecting and comparing the analgesic activity of different classes of analgesic drugs for which there is a good correlation with human efficacy is the prevention of acetylcholine-induced abdominal constriction in mice (H. Collier et al., Br. J. Pharmacol., 32, 295 (1968)).\nMice, incubated with various doses of tramadol hydrochloride alone, ibuprofen alone, combined doses of tramadol hydrochloride and ibuprofen, or vehicle such as distilled water, or distilled water containing 2% by volume of Tween 80, were injected intraperitoneally with a challenge dose of acetylcholine bromide. […]. The mice were observed 10 minutes for the presence or absence of the abdominal constriction response beginning immediately after receiving the acetylcholine dose, which was 30 minutes after receiving the oral administration of tramadol hydrochloride,ibuprofen, combined doses of tramadol hydrochloride and ibuprofen, or vehicle. Each mouse was used only once.\nThe analysis of possible superadditivity for the compositions at each fixed ratio was determined as disclosed by R. J. Tallarida et al., Life Sci., 45, 947 (1989). This procedure involved the determination of the total amount in the mixture that is required to produce a specified level of effect, such as 50% (ED50mix), and the corresponding total amount that would be expected under simple additivity (ED50add). Where it was established that ED50mix <ED50add for a specific fixed-ratio, then that composition ratio was superadditive. Both the quantities ED50mix and ED50add were random variables; ED50mix was estimated from the dose-response curve for a specific fixed-ratio; ED50add was obtained by combining the ED50 estimates for the two drugs under additivity. ED50mix was then compared to ED50add via a Student's t-test. […]. The interaction between tramadol and ibuprofen was determined at precise dosage ratios of tramadol hydrochloride and ibuprofen. Multiple (typically 4-6) coded doses of each selected combination were studied for analgesic effectiveness after 30 minutes using an experimental design which permitted the complete randomization of the separate dosage forms tested.\nIn FIG. 1, the diagonal line joining the ED50 values of the two drugs given separately represents the simple additivity of effects at different component ratios. The dotted lines adjacent to the diagonal line define the 95% confidence interval. ED50 values falling under the curve (between the line and the origin) indicate superadditivity, i.e., unexpected enhancement of effects. The diagonal dashed lines radiating from the origin represent the dose ratios of ibuprofen to tramadol hydrochloride used in mice receiving the combined drug dosages. The bars through the ED50 points for the tramadol and ibuprofen composition represent the 95% confidence intervals of the ED50 value. […]"}, "[2]": {"details": "cited from earlier work; for intensity of pain relieved / tolerance, addiction and toxicity: compared with opioid analgesics; for opioid side effects: Goodman and Gilman's, 8th edition"}},
  "data": [
    {"smiles": "COc1cccc(C2(O)CCCCC2CN(C)C)c1", "note": "(single isomer, unassigned) [tramadol, (1R, 2R or 1S, 2S)-2-[(dimethylamino)methyl]-1-(3-methoxyphenyl)cyclohexanol]", "values": [
      {"measurement": "ED50 value for drug alone", "setting": "[1]; drug alone, oral, 30 min, range in parentheses 95% CI", "value": "5.5(4.8-6.4) mg/kg"},
      {"measurement": "ED50 at 30 min (95% CI's), Tramadol", "setting": "[1]; p.o., tramadol component (calculated as base), Table I", "value": 5.5, "unit": "mg/kg"}
    ]},
    {"smiles": "CC(=O)Oc1ccccc1C(=O)O", "note": "[aspirin]", "values": [
      {"measurement": "intensity of pain relieved", "setting": "[2]", "value": "only useful in relieving pain of moderate intensity"},
      {"measurement": "tolerance, addiction and toxicity", "setting": "[2]", "value": "not subject to the tolerance, addiction and toxicity of the opioid analgesics"}
    ]},
    {"smiles": "COc1ccc2c3c1O[C@H]1[C@@H](O)C=C[C@H]4[C@@H](C2)N(C)CC[C@@]341", "note": "[codeine]", "values": [
      {"measurement": "opioid side effects", "setting": "[2]", "value": "respiratory depression, constipation, tolerance and abuse liability"}
    ]},
    {"smiles": "COc1ccc2c3c1O[C@H]1C(=O)CC[C@H]4[C@@H](C2)N(C)CC[C@]314", "note": "[hydrocodone]", "values": [
      {"measurement": "opioid side effects", "setting": "[2]", "value": "respiratory depression, constipation, tolerance and abuse liability"}
    ]},
    {"smiles": "CC(C)Cc1ccc(C(C)C(=O)O)cc1", "note": "(stereo not drawn) [ibuprofen, 2-(p-isobutylphenyl)propionic acid]", "values": [
      {"measurement": "ED50", "setting": "[1]; Mus musculus, 0.5 h, drug alone, oral, 30 min, range in parentheses 95% CI", "value": 33.5, "unit": "mg/kg"},
      {"measurement": "analgesia", "setting": "[1]; tramadol 0, ibuprofen 10 mg/kg, p.o., 30 min", "value": "2/15"},
      {"measurement": "analgesia", "setting": "[1]; tramadol 0, ibuprofen 20 mg/kg, p.o., 30 min", "value": "4/15"},
      {"measurement": "analgesia", "setting": "[1]; tramadol 0, ibuprofen 40 mg/kg, p.o., 30 min", "value": "8/15"},
      {"measurement": "analgesia", "setting": "[1]; tramadol 0, ibuprofen 80 mg/kg, p.o., 30 min", "value": "13/15"},
      {"measurement": "analgesia", "setting": "[1]; tramadol 0, ibuprofen 160 mg/kg, p.o., 30 min", "value": "14/15"},
      {"measurement": "intensity of pain relieved", "setting": "[2]", "value": "only useful in relieving pain of moderate intensity"},
      {"measurement": "tolerance, addiction and toxicity", "setting": "[2]", "value": "not subject to the tolerance, addiction and toxicity of the opioid analgesics"}
    ]},
    {"smiles": "COc1ccc2c3c1O[C@H]1C(=O)CC[C@@]4(O)[C@@H](C2)N(C)CC[C@]314", "note": "[oxycodone]", "values": [
      {"measurement": "opioid side effects", "setting": "[2]", "value": "respiratory depression, constipation, tolerance and abuse liability"}
    ]}
  ]
}
